Assay results reported in patent US11358957B2, “Microbiocidal oxadiazole derivatives” (SYNGENTA PARTICIPATIONS AG, priority 2017, dated 2022).

Experiments:
[1] = tested on: Puccinia recondita f. Sp. Tritici; assay: Fungicidal activity against Puccinia recondita f. sp. tritici / wheat / leaf disc preventative (brown rust); assay type: in vivo; settings: foliar, 200 ppm in the applied formulation, wheat leaf segments cv. Kanzler, preventative (inoculated 1 day after application), compared to untreated, read-out: disease control
Description: Leaf disks or leaf segments of various plant species are cut from plants grown in a greenhouse. The cut leaf disks or segments are placed in multiwell plates (24-well format) onto water agar. The leaf disks are sprayed with a test solution before (preventative) or after (curative) inoculation. Compounds to be tested are prepared as DMSO solutions (max. 10 mg/mL) which are diluted to the appropriate concentration with 0.025% Tween20 just before spraying. The inoculated leaf disks or segments are incubated under defined conditions (temperature, relative humidity, light, etc.) according to the respective test system. A single evaluation of disease level is carried out 3 to 14 days after inoculation, depending on the pathosystem. Percent disease control relative to the untreated check leaf disks or segments is then calculated. Wheat leaf segments cv. Kanzler were placed on agar in multiwell plates (24-well format) and sprayed with the formulated test compound diluted in water. The leaf disks were inoculated with a spore suspension of the fungus 1 day after application. The inoculated leaf segments were incubated at 19° C. and 75% relative humidity (rh) under a light regime of 12 hours light/12 hours darkness in a climate cabinet and the activity of a compound was assessed as percent disease control compared to untreated when an appropriate level of disease damage appears in untreated check leaf segments (7 to 9 days after application). The following compounds at 200 ppm in the applied formulation give at least 80% disease control in this test when compared to untreated control leaf disks under the same conditions, which show extensive disease development.

[2] = tested on: Puccinia recondita f. Sp. Tritici; assay: Fungicidal activity against Puccinia recondita f. sp. tritici / wheat / leaf disc curative (brown rust); assay type: in vivo; settings: foliar, 24 h, 200 ppm in the applied formulation, wheat leaf segments cv. Kanzler, curative (applied 1 day after inoculation), compared to untreated, read-out: disease control
Description: Leaf disks or leaf segments of various plant species are cut from plants grown in a greenhouse. The cut leaf disks or segments are placed in multiwell plates (24-well format) onto water agar. The leaf disks are sprayed with a test solution before (preventative) or after (curative) inoculation. Compounds to be tested are prepared as DMSO solutions (max. 10 mg/mL) which are diluted to the appropriate concentration with 0.025% Tween20 just before spraying. The inoculated leaf disks or segments are incubated under defined conditions (temperature, relative humidity, light, etc.) according to the respective test system. A single evaluation of disease level is carried out 3 to 14 days after inoculation, depending on the pathosystem. Percent disease control relative to the untreated check leaf disks or segments is then calculated. Wheat leaf segments cv. Kanzler are placed on agar in multiwell plates (24-well format). The leaf segments are then inoculated with a spore suspension of the fungus. Plates were stored in darkness at 19C and 75% relative humidity. The formulated test compound diluted in water was applied 1 day after inoculation. The leaf segments were incubated at 19° C. and 75% relative humidity under a light regime of 12 hours light/12 hours darkness in a climate cabinet and the activity of a compound was assessed as percent disease control compared to untreated when an appropriate level of disease damage appears in untreated check leaf segments (6 to 8 days after application). The following compounds at 200 ppm in the applied formulation give at least 80% disease control in this test when compared to untreated control leaf disks under the same conditions, which show extensive disease development.

[3] = tested on: Glomerella lagenarium (Colletotrichum lagenarium); assay: Fungicidal activity against Glomerella lagenarium (Colletotrichum lagenarium) liquid culture / cucumber / preventative (anthracnose); assay type: cell-based; settings: Colletotrichum orbiculare; 20 ppm in the applied formulation; liquid culture (PDB), inhibition of growth measured photometrically 3 to 4 days after application; compared to untreated; read-out: disease control
Description: Mycelia fragments or conidia suspensions of a fungus prepared either freshly from liquid cultures of the fungus or from cryogenic storage, are directly mixed into nutrient broth. DMSO solutions of the test compound (max. 10 mg/mL) are diluted with 0.025% Tween20 by a factor of 50 and 10 μL of this solution is pipetted into a microtiter plate (96-well format). The nutrient broth containing the fungal spores/mycelia fragments is then added to give an end concentration of the tested compound. The test plates are incubated in the dark at 24° C. and 96% relative humidity. The inhibition of fungal growth is determined photometrically after 2 to 7 days, depending on the pathosystem, and percent antifungal activity relative to the untreated check is calculated. Conidia of the fungus from cryogenic storage are directly mixed into nutrient broth (PDB—potato dextrose broth). After placing a (DMSO) solution of test compound into a microtiter plate (96-well format), the nutrient broth containing the fungal spores is added. The test plates are incubated at 24° C. and the inhibition of growth is measured photometrically 3 to 4 days after application. The following compounds at 20 ppm in the applied formulation give at least 80% disease control in this test when compared to untreated control under the same conditions, which show extensive disease development.

Structure (SMILES)	pest or weed control at 200 ppm [1]	pest or weed control at 200 ppm [2]	inhibition of growth at 20 ppm [3]
O=Cc1cnn(Cc2ccc(-c3noc(C(F)(F)F)n3)s2)c1 [Compound 1.22, 1-[[5-[5-(trifluoromethyl)-1,2,4-oxadiazol-3-yl]-2-thienyl]methyl]pyrazole-4-carbaldehyde]	≥ 80%	≥ 80%	≥ 80%
O=C(NC1CCCC1)c1ncn(Cc2ccc(-c3noc(C(F)(F)F)n3)s2)n1 [Compound 1.94, N-cyclopentyl-1-[[5-[5-(trifluoromethyl)-1,2,4-oxadiazol-3-yl]-2-thienyl]methyl]-1,2,4-triazole-3-carboxamide]	≥ 80%	≥ 80%	≥ 80%
O=C(NC1CCCCC1)c1cnn(Cc2ccc(-c3noc(C(F)(F)F)n3)s2)c1 [Compound 1.105, N-cyclohexyl-1-[[5-[5-(trifluoromethyl)-1,2,4-oxadiazol-3-yl]-2-thienyl]methyl]pyrazole-4-carboxamide]	≥ 80%	≥ 80%	≥ 80%
CCC(C)NC(=O)c1ncn(Cc2ccc(-c3noc(C(F)(F)F)n3)s2)n1 (stereo not drawn) [Compound 1.144, N-sec-butyl-1-[[5-[5-(trifluoromethyl)-1,2,4-oxadiazol-3-yl]-2-thienyl]methyl]-1,2,4-triazole-3-carboxamide]	≥ 80%	≥ 80%	≥ 80%
CC(C)NC(=O)c1cnn(Cc2ccc(-c3noc(C(F)(F)F)n3)s2)c1 [Compound 1.102, N-isopropyl-1-[[5-[5-(trifluoromethyl)-1,2,4-oxadiazol-3-yl]-2-thienyl]methyl]pyrazole-4-carboxamide]	≥ 80%	≥ 80%	≥ 80%
C=CCNC(=O)c1ccn(Cc2ccc(-c3noc(C(F)(F)F)n3)s2)n1 [Compound 1.122, N-allyl-1-[[5-[5-(trifluoromethyl)-1,2,4-oxadiazol-3-yl]-2-thienyl]methyl]pyrazole-3-carboxamide]	≥ 80%	≥ 80%	≥ 80%
FC(F)(F)c1nc(-c2ccc(Cn3cncn3)s2)no1 [Compound 1.2, 3-[5-(1,2,4-triazol-1-ylmethyl)-2-thienyl]-5-(trifluoromethyl)-1,2,4-oxadiazole]	≥ 80%	≥ 80%	≥ 80%
CCN(C)C(=O)c1ccnn1Cc1ccc(-c2noc(C(F)(F)F)n2)s1 [Compound 1.169, N-ethyl-N-methyl-2-[[5-[5-(trifluoromethyl)-1,2,4-oxadiazol-3-yl]-2-thienyl]methyl]pyrazole-3-carboxamide]	≥ 80%	≥ 80%	≥ 80%
CONC(=O)c1cnn(C(C)c2ccc(-c3noc(C(F)(F)F)n3)s2)c1 (stereo not drawn) [Compound 1.82, N-methoxy-1-[1-[5-[5-(trifluoromethyl)-1,2,4-oxadiazol-3-yl]-2-thienyl]ethyl]pyrazole-4-carboxamide]	≥ 80%	≥ 80%	≥ 80%
C#CCNC(=O)c1ncn(Cc2ccc(-c3noc(C(F)(F)F)n3)s2)n1 [Compound 1.98, N-prop-2-ynyl-1-[[5-[5-(trifluoromethyl)-1,2,4-oxadiazol-3-yl]-2-thienyl]methyl]-1,2,4-triazole-3-carboxamide]	≥ 80%	≥ 80%	≥ 80%
CNC(=O)c1cnn(C(C)c2ccc(-c3noc(C(F)(F)F)n3)s2)c1 (stereo not drawn) [Compound 1.70, N-methyl-1-[1-[5-[5-(trifluoromethyl)-1,2,4-oxadiazol-3-yl]-2-thienyl]ethyl]pyrazole-4-carboxamide]	≥ 80%	≥ 80%	≥ 80%
FC(F)(F)c1nc(-c2ccc(Cn3ccc4cccnc43)s2)no1 [Compound 1.8, 3-[5-(pyrrolo[2,3-b]pyridin-1-ylmethyl)-2-thienyl]-5-(trifluoromethyl)-1,2,4-oxadiazole]	≥ 80%	≥ 80%	≥ 80%
O=C(c1ccnn1Cc1ccc(-c2noc(C(F)(F)F)n2)s1)N1CCOCC1 [Compound 1.166, morpholino-[2-[[5-[5-(trifluoromethyl)-1,2,4-oxadiazol-3-yl]-2-thienyl]methyl]pyrazol-3-yl]methanone]	≥ 80%	≥ 80%	≥ 80%
CC(C)CNC(=O)c1ccnn1Cc1ccc(-c2noc(C(F)(F)F)n2)s1 [Compound 1.160, N-isobutyl-2-[[5-[5-(trifluoromethyl)-1,2,4-oxadiazol-3-yl]-2-thienyl]methyl]pyrazole-3-carboxamide]	≥ 80%	≥ 80%	≥ 80%
CON(C)C(=O)c1cnn(Cc2ccc(-c3noc(C(F)(F)F)n3)s2)c1 [Compound 1.103, N-methoxy-N-methyl-1-[[5-[5-(trifluoromethyl)-1,2,4-oxadiazol-3-yl]-2-thienyl]methyl]pyrazole-4-carboxamide]	≥ 80%	≥ 80%	≥ 80%
CC(c1ccc(-c2noc(C(F)(F)F)n2)s1)n1cc(C(=O)NCc2ccco2)cn1 (stereo not drawn) [Compound 1.85, N-(2-furylmethyl)-1-[1-[5-[5-(trifluoromethyl)-1,2,4-oxadiazol-3-yl]-2-thienyl]ethyl]pyrazole-4-carboxamide]	≥ 80%	≥ 80%	≥ 80%
O=[N+]([O-])c1cnn(Cc2ccc(-c3noc(C(F)(F)F)n3)s2)c1 [Compound 1.9, 3-[5-[(4-nitropyrazol-1-yl)methyl]-2-thienyl]-5-(trifluoromethyl)-1,2,4-oxadiazole]	≥ 80%	≥ 80%	≥ 80%
CNC(=O)c1nccn1Cc1ccc(-c2noc(C(F)(F)F)n2)s1 [Compound 1.176, N-methyl-1-[[5-[5-(trifluoromethyl)-1,2,4-oxadiazol-3-yl]-2-thienyl]methyl]imidazole-2-carboxamide]	≥ 80%	≥ 80%	–
CCN(CC)C(=O)c1cnn(Cc2ccc(-c3noc(C(F)(F)F)n3)s2)c1 [Compound 1.113, N,N-diethyl-1-[[5-[5-(trifluoromethyl)-1,2,4-oxadiazol-3-yl]-2-thienyl]methyl]pyrazole-4-carboxamide]	≥ 80%	≥ 80%	–
O=C(NC1CC1)c1nccn1Cc1ccc(-c2noc(C(F)(F)F)n2)s1 [Compound 1.177, N-cyclopropyl-1-[[5-[5-(trifluoromethyl)-1,2,4-oxadiazol-3-yl]-2-thienyl]methyl]imidazole-2-carboxamide]	≥ 80%	≥ 80%	–
